Experimental findings from PubChem BioAssay (NCI) are described below.

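Tested at 5 concentrations; 48 h exposure; 96-well plates; endpoints linearly interpolated, else capped at highest concentration. TGI marks complete inhibition of growth.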

Some test systems named below: KM12 colon; DU-145 prostate; RXF 393 renal; ACHN renal; UO-31 renal; OVCAR-5 ovarian; HOP-92 NSCLC; T-47D breast; MDA-N; SN12C renal; A549 NSCLC; PC-3 prostate; SR leukemia; HCT-116 colon; HL-60(TB) leukemia.
Common to all, as to assay: growth of human tumour cells (NCI), 48 h

As for `CCOP(=O)(OCC)/C(C#N)=C/c1cccn1C`, the TGI in the test with KM12 colon was more than 100 µM; in the test with DU-145 prostate, more than 100 µM; with RXF 393 renal, more than 100 µM; in the test on ACHN renal, more than 100 µM; with UO-31 renal it was 99.5 µM; in the test with OVCAR-5 ovarian, more than 100 µM. In addition, the TGI in the test on HOP-92 NSCLC, with T-47D breast, with MDA-N, with SN12C renal, in the test on A549 NSCLC and in the test with PC-3 prostate was more than 100 µM in each case. For the same compound, the TGI in the test with SR leukemia and in the test on HCT-116 colon was more than 100 µM each time.
As to `O=C(O)C(C1NCCS1)N1C(=O)c2ccccc2C1=O` (stereo unspecified), the TGI in the test on KM12 colon, with DU-145 prostate, with HL-60(TB) leukemia, in the test on RXF 393 renal, in the test with ACHN renal and with UO-31 renal was more than 100 µM in each case. The TGI with OVCAR-5 ovarian, with HOP-92 NSCLC, in the test on T-47D breast, with MDA-N, in the test with SN12C renal and with A549 NSCLC was more than 100 µM throughout. Also, the TGI with PC-3 prostate, in the test on SR leukemia and in the test on HCT-116 colon was more than 100 µM each time.
With `CC1=NN(c2ccccc2Cl)C2(C1)C(Cl)C(=O)N2c1nc2ccccc2s1` (stereo unspecified), the TGI in the test with KM12 colon was more than 100 µM; in the test with DU-145 prostate it was more than 100 µM; in the test on HL-60(TB) leukemia it was 60.6 µM; with RXF 393 renal, more than 100 µM; with ACHN renal, more than 100 µM; in the test on UO-31 renal it was more than 100 µM. The TGI in the test on OVCAR-5 ovarian, in the test with HOP-92 NSCLC, in the test on T-47D breast, with MDA-N, in the test with SN12C renal and in the test with A549 NSCLC was more than 100 µM in each case. The TGI with PC-3 prostate was more than 100 µM; in the test with SR leukemia, 49.6 µM; with HCT-116 colon, more than 100 µM.
With `CCOC(=O)C1Cc2ccc(C)cc2C1=O` (stereo unspecified), the TGI is more than 100 µM in the test on KM12 colon; more than 100 µM in the test on DU-145 prostate; 69.9 µM in the test on HL-60(TB) leukemia; more than 100 µM in the test with ACHN renal; more than 100 µM with UO-31 renal; more than 100 µM in the test with OVCAR-5 ovarian. Also, the TGI in the test on HOP-92 NSCLC, in the test with T-47D breast, with MDA-N, with SN12C renal, with A549 NSCLC and in the test on PC-3 prostate was more than 100 µM in each case. For the same compound, the TGI in the test on SR leukemia and with HCT-116 colon was more than 100 µM each time.
Take `COP(=O)(OC)[C@@](O)(c1ccccc1)[C@@H](O)[C@@H](O)c1ccccc1`: the TGI with KM12 colon, in the test with DU-145 prostate, with HL-60(TB) leukemia, in the test on RXF 393 renal, with ACHN renal and in the test with UO-31 renal was more than 100 µM in each case. Besides, the TGI in the test with OVCAR-5 ovarian, in the test with HOP-92 NSCLC, with T-47D breast, in the test on MDA-N, in the test with SN12C renal and with A549 NSCLC was more than 100 µM in each case. The TGI in the test with PC-3 prostate was more than 100 µM; in the test on SR leukemia it was 1.91 µM; in the test on HCT-116 colon, more than 100 µM.
Turning to `CCc1cccc(CC)c1Nc1nc(-c2ccccc2-c2ccccc2)cs1`, the TGI with KM12 colon, in the test on DU-145 prostate, in the test on HL-60(TB) leukemia, with RXF 393 renal, in the test with ACHN renal and in the test with UO-31 renal was more than 100 µM each time. Also, the TGI in the test with OVCAR-5 ovarian, in the test with HOP-92 NSCLC, in the test with T-47D breast, with MDA-N, in the test on SN12C renal and in the test with A549 NSCLC was more than 100 µM each time. Also, the TGI with PC-3 prostate, with SR leukemia and with HCT-116 colon was more than 100 µM in each case.
As for `COC(=O)c1c(C)c2c(c(C)c1O)OC(=O)c1c(C)cc(O)c(C=O)c1O2`, the TGI with KM12 colon, in the test with DU-145 prostate, with HL-60(TB) leukemia, in the test with RXF 393 renal, in the test on ACHN renal and in the test with OVCAR-5 ovarian was more than 100 µM each time. In addition, the TGI in the test on HOP-92 NSCLC, in the test on T-47D breast, in the test on MDA-N, with SN12C renal, in the test with A549 NSCLC and in the test on PC-3 prostate was more than 100 µM in each case. In addition, the TGI in the test with SR leukemia and in the test on HCT-116 colon was more than 100 µM in each case.
Consider `CCC(=O)NC(NNS(=O)(=O)c1ccc(C)cc1)(C(F)(F)F)C(F)(F)F`, for which the TGI with KM12 colon was more than 100 µM; with DU-145 prostate, more than 100 µM; in the test with HL-60(TB) leukemia, more than 100 µM; in the test with RXF 393 renal it was 82.9 µM; in the test on ACHN renal, more than 100 µM; in the test with UO-31 renal it was more than 100 µM. Moreover, the TGI in the test on OVCAR-5 ovarian is more than 100 µM; in the test with HOP-92 NSCLC, more than 100 µM; with T-47D breast it was more than 100 µM; in the test with MDA-N, 54.3 µM; with A549 NSCLC, more than 100 µM; in the test with PC-3 prostate, more than 100 µM. In addition, the TGI in the test on SR leukemia and with HCT-116 colon was more than 100 µM in each case.
Regarding `Clc1nc(NC23CC4CC(CC(C4)C2)C3)nc(NC23CC4CC(CC(C4)C2)C3)n1`, the TGI was more than 100 µM in the test with KM12 colon; more than 100 µM with DU-145 prostate; 87.5 µM with HL-60(TB) leukemia; more than 80.2 µM with RXF 393 renal; more than 100 µM with ACHN renal; more than 100 µM in the test with UO-31 renal. In addition, the TGI is more than 100 µM in the test on OVCAR-5 ovarian; more than 100 µM in the test on HOP-92 NSCLC; more than 89 µM with T-47D breast; more than 100 µM in the test on MDA-N; more than 100 µM in the test on SN12C renal; more than 100 µM in the test on A549 NSCLC. In addition, the values for the TGI with PC-3 prostate, with SR leukemia and in the test with HCT-116 colon were more than 40.6 µM, more than 100 µM and more than 100 µM, respectively.
